# Assay results: patent publication US9173882B2, “Polycyclic heteroaryl substituted triazoles useful as Axl inhibitors” (Rigel Pharmaceuticals, Inc., priority 2008, dated 2015)
# Molecular target: T1, Axl (Homo sapiens, UniProt P30530)
# T1 construct: endogenous in cells; host or cells: HeLa cells
# T1 sequence (P30530 26-894): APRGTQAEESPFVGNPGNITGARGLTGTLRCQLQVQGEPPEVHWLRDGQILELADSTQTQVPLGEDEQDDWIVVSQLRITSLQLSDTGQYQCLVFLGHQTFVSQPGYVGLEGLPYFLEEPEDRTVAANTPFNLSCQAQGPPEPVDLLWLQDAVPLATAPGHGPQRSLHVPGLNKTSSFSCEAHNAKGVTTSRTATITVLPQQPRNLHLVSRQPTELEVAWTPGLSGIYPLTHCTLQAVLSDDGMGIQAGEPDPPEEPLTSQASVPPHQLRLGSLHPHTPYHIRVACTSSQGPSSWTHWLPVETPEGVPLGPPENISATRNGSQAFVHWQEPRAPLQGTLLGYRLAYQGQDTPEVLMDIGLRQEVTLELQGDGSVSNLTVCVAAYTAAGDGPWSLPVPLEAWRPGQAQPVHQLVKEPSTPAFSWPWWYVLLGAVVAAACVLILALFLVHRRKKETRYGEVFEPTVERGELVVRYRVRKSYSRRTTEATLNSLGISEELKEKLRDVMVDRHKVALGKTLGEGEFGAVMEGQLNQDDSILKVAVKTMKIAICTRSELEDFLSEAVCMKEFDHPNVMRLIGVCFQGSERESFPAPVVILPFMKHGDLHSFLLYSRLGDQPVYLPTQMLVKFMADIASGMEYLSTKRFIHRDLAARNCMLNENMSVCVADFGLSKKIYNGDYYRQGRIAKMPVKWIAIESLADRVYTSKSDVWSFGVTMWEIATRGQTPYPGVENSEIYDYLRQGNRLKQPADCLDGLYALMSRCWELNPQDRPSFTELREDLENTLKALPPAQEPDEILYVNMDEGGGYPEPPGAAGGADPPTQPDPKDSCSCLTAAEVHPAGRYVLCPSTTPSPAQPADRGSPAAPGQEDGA
# Test: Phospho-Akt in-cell Western assay
# Type: cell-based
# Conditions: Hela cells, stimulated by Axl-antibody cross-linking, phospho-Akt chemiluminescence; Table 1, formula (Ia)
# Method: Phospho-Akt in-Cell Western Assay
# The compounds of the invention were tested in the following assay for their ability to inhibit Axl activity.
# • Cell culture plate: 96 well assay plate (Corning 3610), white, clear bottom, tissue-culture treated. • Cells: Hela cells. • Starvation medium: For Axl stimulation: 0.5% FCS (fetal calf serum) in DMEM, plus Axl/Fc (extracellular domain of AXL fused to imunoglobulin Fc region) (R&D, 154-AL) 500 ng/mL. • For EGF (epidermal growth factor) stimulation: 0.5% FCS in DMEM (Dulbecco's modified Eagles medium). • Poly-L-Lysine 0.01% solution (the working solution): 10 μg/ml, dilute In PBS (phosphate buffered saline). • Axl antibody cross-linking: • 1st: Mouse anti-Axl (R&D, MAB154). • 2nd: Biotin-SP-conjugated AffiniPure goat anti-mouse IgG (H+L) (Jackson ImmunoResearch #115-065-003). • Fixing buffer: 4% formaldehyde in PBS. • Wash buffer: 0.1% TritonX-100 in PBS. • Quenching buffer: 3% H2O2, 0.1% Azide in wash buffer, Azide and hydrogen peroxide (H2O2) are added fresh. • Blocking buffer: 5% BSA in TBST (tris buffered saline plus 0.1% Tween 20). • Primary antibody: Rabbit anti-human Phospho-Akt antibody (Cell Signaling 9271): 1×250 diluted in blocking buffer. • Secondary antibody: HRP (horse radish peroxidase)-conjugated Goat anti-Rabbit secondary, stock solution: Jackson ImmunoResearch (Goat anti-Rabbit HRP, #111-035-144) 1:1 diluted in glycerol, store at −20° C. The working solution: 1×2000 dilution of stock in blocking buffer. • Chemiluminescent working solution (Pierce, 37030): SuperSignal ELISA (enzyme linked immunosorbant assay) Pico Chemiluminescent substrate. • Crystal Violet solution: Stock: 2.5% Crystal violet in methanol, filtered and kept at ambient temperature. The working solution: dilute the stock 1:20 with PBS immediately before use. • 10% SDS: working solution: 5% SDS (sodium dodecylsulfate), diluted in PBS Methods: Day 1:
# A 96 well TC (tissue culture treated) plate was coated with 10 μg/mL poly-L-Lysine at 37° C. for 30 min, washed twice with PBS, and air-dried for 5 minutes before cells were added. Hela cells were seeded at 10,000 cells/well and the cells were starved in 100 μL starvation medium containing Axl/Fc for 24 hrs.
# The cells were pre-treated with test compounds by adding 100 μL of 2× test compound to the starvation medium on the cells. The cells were incubated at 37° C. for 1 hr before stimulation.
# The cells were stimulated by Axl-antibody cross-linking as follows: A 5× 1st/2nd Axl antibody mixture was made (37.5 μg/mL 1st/100 μg/mL 2nd) in starvation medium and nutated at 4° C. with thorough mixing for 1-2 hours for clustering. The resulting mix was warmed to 37° C. 50 μL of 5× Axl 1st/2nd of antibody cluster was added to the cells and the cells were incubated at 37° C. for 5 min.
# After 5 minutes stimulation, the plate was flicked to remove medium and the plate was tapped onto paper towels. Formaldehyde (4.0% in PBS, 100 μL) was added to fix the cells and the cells were incubated at ambient temperature for 20 min without shaking.
# The cells were washed with a plate washer buffer to remove the formaldehyde solution. The plate was flicked to removed excess wash buffer and tapped onto paper towels. Quenching buffer (100 μL) was added to each well and the cells were incubated at ambient temperature for 20 minutes without shaking.
# The cells were washed with a plate washer buffer to remove the quenching buffer. Blocking buffer (100 μL) was added and the cells were incubated at ambient temperature for at least an hour with gentle shaking.
# The cells were washed with a plate washer buffer and diluted primary antibody (50 μL) was added to each well (blocking buffer was added to the negative control wells instead). The plates were incubated overnight at 4° C. with gentle shaking.
# The wash buffer was removed, diluted secondary antibody (100 μL) was added, and the cells were incubated at ambient temperature for 1 hour with gentle shaking. […]
row,SMILES,IC50 [µM]
1,"Nc1nc(Nc2ccc3c(c2)CC[C@@H](NCc2ccccc2C(=O)O)CC3)nn1-c1cc2c(nn1)-c1ccccc1CCC2 [Compound 29, 1-(6,7-dihydro-5H-benzo[6,7]cyclohepta[1,2-c]pyridazin-3-yl)-N^3-((7S)-7-((2-carboxyphenyl)methyl)amino-6,7,8,9-tetrahydro-5H-benzo[7]annulene-2-yl)-1H-1,2,4-triazole-3,5-diamine]",1 to 10
2,"Nc1nc(Nc2ccc3c(c2)CC[C@@H](NCC2CCCCC2)CC3)nn1-c1cc2c(nn1)-c1ccccc1CCC2 [Compound 26, 1-(6,7-dihydro-5H-benzo[6,7]cyclohepta[1,2-c]pyridazin-3-yl)-N^3-((7S)-7-((cyclohexylmethyl)amino)-6,7,8,9-tetrahydro-5H-benzo[7]annulene-2-yl)-1H-1,2,4-triazole-3,5-diamine]",< 1
3,CC(C)(C)OC(=O)N[C@H]1CCc2ccc(Nc3nc(N)n(-c4cc5c(nn4)-c4cccnc4CCC5)n3)cc2CC1 [Compound 44],> 20
4,"COC(=O)[C@H]1CCCN1C1CCc2ccc(Nc3nc(N)n(-c4cc5c(nn4)-c4ccccc4CCC5)n3)cc2CC1 (stereo partly drawn) [Compound 2, 1-(6,7-dihydro-5H-benzo[6,7]cyclohepta[1,2-c]pyridazin-3-yl)-N^3-(7-((2R)-2-(methoxycarbonyl)pyrrolidin-1-yl)-6,7,8,9-tetrahydro-5H-benzo[7]annulene-2-yl)-1H-1,2,4-triazole-3,5-diamine]",< 1
5,"Nc1nc(Nc2ccc3c(c2)CC[C@@H](N(CC2CCCC2)CC2CCCC2)CC3)nn1-c1cc2c(nn1)-c1ccccc1CCC2 [Compound 35, 1-(6,7-dihydro-5H-benzo[6,7]cyclohepta[1,2-c]pyridazin-3-yl)-N^3-((7S)-7-(di(cyclopentylmethyl)amino)-6,7,8,9-tetrahydro-5H-benzo[7]annulene-2-yl)-1H-1,2,4-triazole-3,5-diamine]",1 to 10
6,"CCN(CC)[C@H]1CCc2ccc(Nc3nc(N)n(-c4cc5c(nn4)-c4ccccc4CCC5)n3)cc2CC1 [Compound 20, 1-(6,7-dihydro-5H-benzo[6,7]cyclohepta[1,2-c]pyridazin-3-yl)-N^3-((7S)-7-(diethylamino)-6,7,8,9-tetrahydro-5H-benzo[7]annulene-2-yl)-1H-1,2,4-triazole-3,5-diamine]",< 1
7,"Nc1nc(Nc2ccc3c(c2)CC[C@@H](NC2CCCCC2)CC3)nn1-c1cc2c(nn1)-c1cccnc1CCC2 [Compound 53, 1-(6,7-dihydro-5H-pyrido[2′,3′:6,7]cyclohepta[1,2-c]pyridazin-3-yl)-N^3-((7S)-7-(cyclohexylamino)-6,7,8,9-tetrahydro-5H-benzo[7]annulene-2-yl)-1H-1,2,4-triazole-3,5-diamine]",< 1
8,"Nc1nc(Nc2ccc3c(c2)CC[C@@H](NC2CCC2)CC3)nn1-c1cc2c(nn1)-c1ccccc1CCC2 [Compound 32, 1-(6,7-dihydro-5H-benzo[6,7]cyclohepta[1,2-c]pyridazin-3-yl)-N^3-((7S)-7-(cyclobutylamino)-6,7,8,9-tetrahydro-5H-benzo[7]annulene-2-yl)-1H-1,2,4-triazole-3,5-diamine]",< 1

# More lines, now with the values ahead:
row,IC50 [µM],SMILES
1,< 1,"CCC(CC)CN[C@H]1CCc2ccc(Nc3nc(N)n(-c4cc5c(nn4)-c4ccccc4CCC5)n3)cc2CC1 [Compound 41, 1-(6,7-dihydro-5H-benzo[6,7]cyclohepta[1,2-c]pyridazin-3-yl)-N^3-((7S)-7-(2-ethylbutylamino)-6,7,8,9-tetrahydro-5H-benzo[7]annulene-2-yl)-1H-1,2,4-triazole-3,5-diamine]"
2,< 1,"Nc1nc(Nc2ccc3c(c2)CC[C@@H](NC2CCC2)CC3)nn1-c1cc2c(nn1)-c1cccnc1CCC2 [Compound 52, 1-(6,7-dihydro-5H-pyrido[2′,3′:6,7]cyclohepta[1,2-c]pyridazin-3-yl)-N^3-((7S)-7-(cyclobutylamino)-6,7,8,9-tetrahydro-5H-benzo[7]annulene-2-yl)-1H-1,2,4-triazole-3,5-diamine]"
3,< 1,"CCCN(CCC)[C@H]1CCc2ccc(Nc3nc(N)n(-c4cc5c(nn4)-c4ccccc4CCC5)n3)cc2CC1 [Compound 19, 1-(6,7-dihydro-5H-benzo[6,7]cyclohepta[1,2-c]pyridazin-3-yl)-N^3-((7S)-7-(dipropylamino)-6,7,8,9-tetrahydro-5H-benzo[7]annulene-2-yl)-1H-1,2,4-triazole-3,5-diamine]"
4,< 1,"CN(C)[C@H]1CCc2ccc(Nc3nc(N)n(-c4cc5c(nn4)-c4ccccc4CCC5)n3)cc2CC1 [Compound 31, 1-(6,7-dihydro-5H-benzo[6,7]cyclohepta[1,2-c]pyridazin-3-yl)-N^3-((7S)-7-(dimethylamino)-6,7,8,9-tetrahydro-5H-benzo[7]annulene-2-yl)-1H-1,2,4-triazole-3,5-diamine]"
5,< 1,"Nc1nc(Nc2ccc3c(c2)CC[C@@H](N)CC3)nn1-c1cc2c(nn1)-c1cccnc1CCC2 [Compound 46, 1-(6,7-dihydro-5H-pyrido[2′,3′:6,7]cyclohepta[1,2-c]pyridazin-3-yl)-N^3-((7S)-7-amino-6,7,8,9-tetrahydro-5H-benzo[7]annulene-2-yl)-1H-1,2,4-triazole-3,5-diamine]"
6,< 1,"CC=CCN(CCCC)[C@H]1CCc2ccc(Nc3nc(N)n(-c4cc5c(nn4)-c4ccccc4CCC5)n3)cc2CC1 [Compound 43, 1-(6,7-dihydro-5H-benzo[6,7]cyclohepta[1,2-c]pyridazin-3-yl)-N^3-((7S)-7-(butyl(but-2-enyl)amino)-6,7,8,9-tetrahydro-5H-benzo[7]annulene-2-yl)-1H-1,2,4-triazole-3,5-diamine]"

# Same assay, conditions: Hela cells, stimulated by Axl-antibody cross-linking, phospho-Akt chemiluminescence; Table 2, formula (Ib)
row,SMILES,IC50 [µM]
1,"CC(C)(C)OC(=O)N[C@H]1CCc2ccc(Nc3nc(N)nn3-c3cc4c(nn3)-c3ccccc3CCC4)cc2CC1 [Compound 14, 1-(6,7-dihydro-5H-benzo[6,7]cyclohepta[1,2-c]pyridazin-3-yl)-N^5-((7S)-7-(t-butoxycarbonylamino)-6,7,8,9-tetrahydro-5H-benzo[7]annulene-2-yl)-1H-1,2,4-triazole-3,5-diamine]",> 20
